Each compound was assayed against T1, human mPGES-1 (Homo sapiens, UniProt O14684) (assay: Microsomal prostaglandin E synthase biochemical assay). Settings: microsome preparation containing human mPGES-1; substrate PGH2 10.8 μM, GSH 2.5 mM, pH 6.8; PGE2 by HTRF; average of at least n=2.
T1 construct: host or cells: microsomes
T1 sequence (O14684 1-152): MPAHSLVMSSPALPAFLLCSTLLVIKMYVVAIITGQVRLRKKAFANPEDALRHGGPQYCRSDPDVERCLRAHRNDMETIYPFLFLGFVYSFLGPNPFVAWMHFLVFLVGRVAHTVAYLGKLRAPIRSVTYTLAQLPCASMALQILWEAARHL
Method: Compounds were tested as inhibitors of microsomal prostaglandin E synthase activity in microsomal prostaglandin E synthase assays and whole cell assays. These assays measure prostaglandin E2 (PGE2) synthesis which is taken as a measure of prostaglandin E synthase activity. Microsomal prostaglandin E synthase biochemical assays used microsomal prostaglandin E synthase-1 in microsomal preparations. The source of the microsomes can be for example interleukin-1β-stimulated human A549 cells (which express human mPGES-1) or Sf9 cells transfected with plasmids encoding human mPGES-1 cDNA.
A solution of test compound was added to a diluted microsome preparation containing is human mPGES-1 and pre-incubated for 15 minutes in potassium phosphate buffer pH 6.8 with cofactor glutathione (GSH). Corresponding solutions without test compound were used as positive controls, and corresponding solutions without test compound and without microsomes were used as negative controls. The enzymatic reaction was then started by addition of the substrate PGH2 in an organic solution (dry acetonitrile).
The reaction was stopped after one minute by adding an acidic solution (pH 1.9) of ferric chloride and citrate (final concentrations 7 mM and 47 mM respectively), by which the PGH2 was sequestered (the PGH2 is reduced to mainly 12-hydroxy heptadecatrineoic acid (12-HHT) which is not detected by the subsequent PGE2 detection step). The resulting solution was then pH neutralized by addition of potassium phosphate buffer, prior to diluting an aliquot of the resulting solution in a weak potassium phosphate buffer (50 mM, pH 6.8) containing 0.2% BSA (w/v). […] The PGE2 formed was quantified by use of a commercial HTRF based kit (catalogue #62PG2PEC or #62P2APEC from Cisbio International). 100% activity was defined as the PGE2 production in positive controls subtracted by the PGE2 production in the negative controls. IC50 values were then determined using standard procedures.

**Q.** How did the IC50 turn out when `NS(=O)(=O)c1ccccc1S(=O)(=O)NC(=O)c1ccc(C#CC2CCCC2)c(OCCCC(F)(F)F)c1` [Example 69, 4-(Cyclopentylethynyl)-N-(2-sulfamoylphenylsulfonyl)-3-(4,4,4-trifluorobutoxy)benzamide] was run?
**A.** The IC50 was 11 nM.

**Q.** `Cc1ccc(C#Cc2ccc(C(=O)NS(=O)(=O)c3ccccc3S(N)(=O)=O)cc2OCCC(F)F)cc1` [Example 70, 3-(3,3-Difluoropropoxy)-N-(2-sulfamoylphenylsulfonyl)-4-(p-tolylethynyl)benzamide] was tested. Which IC50 did it give?
**A.** Its IC50 is 7.8 nM.

**Q.** For `CC(C)C#Cc1ccc(C(=O)NS(=O)(=O)c2ccccc2S(N)(=O)=O)cc1OCCC(F)F` [Example 71, 3-(3,3-Difluoropropoxy)-4-(3-methylbut-1-ynyl)-N-(2-sulfamoylphenylsulfonyl)benzamide], which IC50 is on record?
**A.** The IC50 was 31 nM.

**Q.** Which IC50 does the source give for `CC(C)C#Cc1ccc(C(=O)NS(=O)(=O)c2ccccc2S(N)(=O)=O)cc1OCCCF` [Example 72, 3-(3-Fluoropropoxy)-4-(3-methylbut-1-ynyl)-N-(2-sulfamoylphenylsulfonyl)benzamide] here?
**A.** The IC50 was 43 nM.

**Q.** How did the IC50 turn out when `COc1cc(C(=O)NS(=O)(=O)c2ccccc2S(N)(=O)=O)ccc1C#Cc1ccccc1` [Example 73, 3-Methoxy-4-(phenylethynyl)-N-(2-sulfamoylphenylsulfonyl)benzamide] was run?
**A.** Its IC50 is 24 nM.

**Q.** With `COc1cc(C(=O)NS(=O)(=O)c2ccccc2S(N)(=O)=O)ccc1C#CC(C)C` [Example 74, 3-Methoxy-4-(3-methylbut-1-ynyl)-N-(2-sulfamoylphenylsulfonyl)benzamide] as the compound, how does the IC50 read?
**A.** Its IC50 is 190 nM.

**Q.** `NS(=O)(=O)c1cc(O)ccc1S(=O)(=O)NC(=O)c1ccc(-c2cc3ccccc3o2)cc1` [Example 75, 4-Hydroxy-benzene-1,2-disulfonic acid 2-amide 1-(4-benzofuran-2-yl-benzoylamide)] was tested. Which IC50 did it give?
**A.** Its IC50 is 26 nM.

**Q.** With `COc1ccc(S(=O)(=O)NC(=O)c2ccc(-c3cc4ccccc4o3)cc2)c(S(N)(=O)=O)c1` [Example 76, 4-methoxy-benzene-1,2-disulfonic acid 2-amide 1-(4-benzofuran-2-yl-benzoylamide)] as the compound, how does the IC50 read?
**A.** The IC50 was 530 nM.

**Q.** `CC(C)(C)C#Cc1ccc(C(=O)NS(=O)(=O)c2ccc(O)cc2S(N)(=O)=O)cc1` [Example 77, 4-Hydroxy-benzene-1,2-disulfonic acid 2-amide 1-[4-(3,3-dimethyl-but-1-ynyl)-benzoylamide]] was tested. Which IC50 did it give?
**A.** The IC50 was 61 nM.

**Q.** Which IC50 does the source give for `COc1ccc(S(=O)(=O)NC(=O)c2ccc(C#CC(C)(C)C)cc2)c(S(N)(=O)=O)c1` [Example 78, 4-methoxy-benzene-1,2-disulfonic acid 2-amide 1-[4-(3,3-dimethyl-but-1-ynyl)-benzoylamide]] here?
**A.** The IC50 was 2200 nM.

From US20100292279A1, “Bis-(Sulfonylamino) Derivatives in Therapy” (ASTRAZENECA AB, priority 2009, published 2010)
